Measured values reported in US20030157182A1, “Pharmaceutical preparations and their manufacture” (priority 2000, published 2003).

Experiments:
[1] = Particle size distribution by volume, Malvern Mastersizer 2000; assay type: physicochemical; conditions: for d(0.5): volume median diameter, μm
Source text: (§1) Using the Malvern Mastersizer 2000 we have examined the particle size by volume of a range of materials. The Mastersizer 2000 utilises a log-normal scale for description of particle sizes. We have then examined the data statistically to determine normalized Kurtosis by copying the particle size data into Microsoft Excel and performing the “KURT” function according to the method given in Example 1. Kurtosis values for those materials are given in Table 1 along with volume median diameters. A mesokurtic normal distribution has a normalized Kurtosis value of zero.
(i) The active particles were suspended (using stirring and sonication) in cyclohexane with 0.1% lecithin. Sufficient active particles were used to ensure the necessary obscuration;
(ii) The suspension was placed in the wet cell of the Malvern Mastersizer 2000 and the particle size distribution was measured using an appropriate lens system;
(iii) The results were analysed using the proprietary software of the Mastersizer 2000 to produce the size distribution given in Table 2.

[2] = Normalised Kurtosis of the particle size distribution (Microsoft Excel KURT function on Mastersizer classes); assay type: physicochemical; conditions: for Normalised Kurtosis: particle size by volume, Mastersizer 2000 classes, 0 = mesokurtic normal distribution; for normalized Kurtosis: positive = narrow size distribution
Source text: The normalized Kurtosis is defined in formula (2) above and can be derived for a given particle size distribution by using any of a number of widely available statistical software packages, for example, Microsoft Excel.
A large number of data points is required to provide an accurate analysis of the Kurtosis of a particle size distribution. Indeed a true Kurtosis value would require the exact size of every particle in a distribution.
as §1
(iv) The results shown in Table 2 were analysed using the KURT function of Microsoft Excel which gave the normalized Kurtosis value of 6.93.

[3] = listed as paracetamol material according to the invention
[4] = listed as commercial grade of paracetamol

polydispersity of particle size distribution ([1]; FIG. 2, compared to the Sigma paracetamol starting material) | volume median diameter / volume median particle size [1, 3] | d(0.5) [1] | Normalised Kurtosis [2] | normalized Kurtosis [2] | normalized Kurtosis [2, 3] | volume median diameter / volume median particle size ([1]; listed as milled paracetamol) | normalized Kurtosis ([2]; listed as milled paracetamol) | volume median diameter / volume median particle size [1, 4] | normalized Kurtosis [2, 4] | Structure (SMILES)
much reduced polydispersity | 12 μm | 21 µm | 6.93 | 6.93 | 6.9 |  |  |  |  | CC(=O)Nc1ccc(O)cc1 [Paracetamol from Example 1, Paracetamol]
 |  | 12 µm | −1.10 |  |  | 12 μm | −1.1 |  |  | CC(=O)Nc1ccc(O)cc1 [Paracetamol Milled Sigma, Paracetamol]
 |  | 19 µm | −0.43 |  |  |  |  | 19 μm | −0.43 | CC(=O)Nc1ccc(O)cc1 [Sigma Paracetamol, Paracetamol]
